# Reference: patent US7342012B2, “Inhibitors of αLβ2 mediated cell adhesion” (Mitsubishi Tanabe Pharma Corporation, priority 1999, dated 2008)
row,SMILES,melting point
1,N#Cc1cccc(N2C(=O)N3CCCC3(Cc3ccc(Br)cc3)C2=O)c1 (stereo not drawn) [Example 234],241 °C
2,"COC(=O)C=C1CN2C(=O)N(c3cc(Cl)cc(Cl)c3)C(=O)C2(Cc2ccc(Br)cc2)C1 (stereo not drawn) [Example 36, 5-(4-Bromobenzyl)-3-(3,5-dichlorophenyl)-7-methoxycarbonylmethylene-1,3-diazabicyclo[3.3.0]octane-2,4-dione]",74.9 °C
3,"O=C(O)CN1CCN2C(=O)N(c3cc(Cl)cc(Cl)c3)C(=O)C2(Cc2ccc(Br)cc2)C1 (stereo not drawn) [Example 34, 4-Carboxymethyl-6-(4-bromobenzyl)-8-(3,5-dichlorophenyl)-1,4,8-triazabicyclo[4.3.0]nonane-7,9-dione]",236.5 °C
4,"O=C1CN2C(=O)N(c3cc(Cl)cc(Cl)c3)C(=O)C2(Cc2ccc(Br)cc2)C1 (stereo not drawn) [Example 35, 5-(4-Bromobenzyl)-3-(3,5-dichlorophenyl)-1,3-diazabicyclo[3.3.0]octane-2,4,7-trione]",85.4 °C
5,"O=C(c1ccc(Cl)c(Cl)c1)N1C(=O)N2CCCC2(Cc2ccc(Br)cc2)C1=O (stereo not drawn) [Example 109, 5-(4-Bromobenzyl)-3-(3,4-dichlorobenzoyl)-1,3-diazabicyclo[3.3.0]octane-2,4-dione]",158 °C
6,CNC(=O)C1CN2C(=O)N(c3cc(Cl)cc(Cl)c3)C(=O)C2(Cc2ccc(OC(F)(F)F)cc2)C1 (stereo not drawn) [Example 319],122.7 °C
7,O=C1N(c2cccc(Cl)c2)C(=O)C2(Cc3ccc(Br)cc3)CCCN12 (stereo not drawn) [Example 230],66 °C
8,"CN(C)CC(=O)N1CCN2C(=O)N(c3cc(Cl)cc(Cl)c3)C(=O)C2(Cc2ccc(Br)cc2)C1 (stereo not drawn) [Example 31, 4-[(Dimethylamino)acetyl]-6-(4-bromobenzyl)-8-(3,5-dichlorophenyl)-1,4,8-triazabicyclo[4.3.0]nonane-7,9-dione]",73.5 °C
9,O=C1N(c2cccc(F)c2)C(=O)C2(Cc3ccc(Br)cc3)CCCN12 (stereo not drawn) [Example 238],120.9 °C
10,"[N-]=[N+]=N[C@@H]1CN2C(=O)N(c3cc(Cl)cc(Cl)c3)C(=O)[C@]2(Cc2ccc(Br)cc2)C1 [Example 3, (5S,7S)-5-(4-Bromobenzyl)-3-(3,5-dichlorophenyl)-7-azido-1,3-diazabicyclo[3.3.0]octane-2,4-dione]",58.9 °C
11,"O=C1N(c2cc(Cl)nc(Cl)c2)C(=O)C2(Cc3cccc([N+](=O)[O-])c3)CCCN12 (stereo not drawn) [Example 239, 5-(3-Nitrobenzyl)-3-(2,6-dichloro-4-pyridyl)-1,3-diazacyclo[3.3.0]octane-2,4-dione]",182.8 °C
12,"O=C1N(c2cc(Cl)nc(Cl)c2)C(=O)C2(Cc3ccc(Br)cc3)CCCN12 (stereo not drawn) [Example 55, 3-(2,6-dichloro-4-pyridyl)-5-(4-bromobenzyl)-1,3-diazabicyclo[3.3.0]octane-2,4-dione]",76.3 °C
13,"COC(=O)c1ccc(CC23CCCCN2C(=O)N(c2cc(Cl)cc(Cl)c2)C3=O)cc1 (stereo not drawn) [Example 155, 6-(4-Methoxycarbonylbenzyl)-8-(3,5-dichlorophenyl)-1,8-diazabicyclo[4.3.0]nonane-7,9-dione]",51 °C
14,"N#Cc1ccc(C(=O)C23CCCN2C(=O)N(c2cc(Cl)cc(Cl)c2)C3=O)cc1 (stereo not drawn) [Example 112, 5-(4-Cyanobenzoyl)-3-(3,5-dichlorophenyl)-1,3-diazabicyclo[3.3.0]octane-2,4-dione]",72.1 °C
15,NC1CN2C(=O)N(c3cc(Cl)nc(Cl)c3)C(=O)C2(Cc2ccc(OC(F)(F)F)cc2)C1 (stereo not drawn) [Example 281],123.5 °C
16,O=C(O)c1ccc(CC23CCCCN2C(=O)N(c2cc(Cl)cc(Cl)c2)C3=O)cc1 (stereo not drawn) [Example 156],256.2 °C (dec.)
17,NC(=O)C1CN2C(=O)N(c3cc(Cl)cc(Cl)c3)C(=O)C2(Cc2ccc(OC(F)(F)F)cc2)C1 (stereo not drawn) [Example 317],140.3 °C
18,"N#Cc1ccc(C[C@]23C[C@@H](O)CN2C(=O)N(c2cc(Cl)nc(Cl)c2)C3=O)cc1 [Example 60, (5R,7R)-5-(4-Cyanobenzyl)-3-(2,6-dichloro-4-pyridyl)-7-hydroxy-1,3-diazabicyclo[3.3.0]octane-2,4-dione]",97.6 °C
19,"CC(=O)N[C@@H]1CN2C(=O)N(c3cc(Cl)nc(Cl)c3)C(=O)[C@@]2(Cc2ccc(OC(F)(F)F)cc2)C1 [Example 64, (5R,7S)-5-[4-(Trifluoromethoxy)benzyl]-3-(2,6-dichloro-4-pyridyl)-7-acetamido-1,3-diazabicyclo[3.3.0]octane-2,4-dione]",126.9 °C
20,CN(C)C(=O)C1CN2C(=O)N(c3cc(Cl)cc(Cl)c3)C(=O)C2(Cc2ccc(OC(F)(F)F)cc2)C1 (stereo not drawn) [Example 313],106.1 °C

row,SMILES,melting point
1,"[N-]=[N+]=N[C@@H]1CN2C(=O)N(c3cc(Cl)nc(Cl)c3)C(=O)[C@@]2(Cc2ccc(OC(F)(F)F)cc2)C1 [Example 62, (5R,7S)-5-[4-(Trifluoromethoxy)benzyl]-3-(2,6-dichloro-4-pyridyl)-7-azido-1,3-diazabicyclo[3.3.0]octane-2,4-dione]",139.9 °C
2,"N#Cc1ccc(CC23CCNN2C(=O)N(c2cc(Cl)nc(Cl)c2)C3=O)cc1 (stereo not drawn) [Example 57, 5-(4-Cyanobenzyl)-3-(2,6-dichloro-4-pyridyl)-1,3,8-triazabicyclo [3.3.0]octane-2,4-dione]",187 °C
3,"O=C(O)CNC(=O)c1c(Cl)cc(N2C(=O)N3CCCC3(Cc3ccc(Br)cc3)C2=O)cc1Cl (stereo not drawn) [Example 227, 5-(4-Bromobenzyl)-3-[3,5-dichloro-4-(carboxymethylcarbamoyl)phenyl]-1,3-diazabicyclo[3.3.0]octane-2,4-dione]",157 to 158 °C
4,"O=C1N(c2cc(Cl)nc(Cl)c2)C(=O)[C@]2(Cc3ccc(OC(F)(F)F)cc3)C[C@@H](O)CN12 [Example 59, (5S,7R)-5-[4-(Trifluoromethoxy)benzyl]-3-(2,6-dichloro-4-pyridyl)-7-hydroxy-1,3-diazabicyclo[3.3.0]octane-2,4-dione]",162.3 °C
5,"CC(=O)N1CCN2C(=O)N(c3cc(Cl)cc(Cl)c3)C(=O)C2(Cc2ccc(Br)cc2)C1 (stereo not drawn) [Example 28, 4-Acetyl-6-(4-bromobenzyl)-8-(3,5-dichloro-phenyl)-1,4,8-triazabicyclo[4.3.0]nonane-7,9-dione]",89.6 °C
6,"CC(=O)Nc1ccc(-c2ccc(CC34CCCN3C(=O)N(c3cc(Cl)cc(Cl)c3)C4=O)cc2)cc1 (stereo not drawn) [Example 116, 5-[4-(4-Acetylaminophenyl)benzyl]-3-(3,5-dichlorophenyl)-1,3-diazabicyclo[3.3.0]octane-2,4-dione]",123.9 °C
7,"O=C1N(c2cc(Cl)cc(Cl)c2)C(=O)[C@]2(Cc3ccc(Br)cc3)C[C@H](O)CN12 [Example 5, (5S,7S)-5-(4-Bromobenzyl)-3-(3,5-dichlorophenyl)-7-hydroxy-1,3-diazabicyclo[3.3.0]octane-2,4-dione]",88.3 °C
8,"N#Cc1ccc(CC23CCCN2C(=O)N(Cc2ccncc2)C3=O)cc1 (stereo not drawn) [Example 108, 5-(4-Cyanobenzyl)-3-(4-pyridylmethyl)-1,3-diazabicyclo[3.3.0]octane-2,4-dione]",154 °C
9,"CCCCC(=O)N[C@@H]1CN2C(=O)N(c3cc(Cl)nc(Cl)c3)C(=O)[C@@]2(Cc2ccc(OC(F)(F)F)cc2)C1 [Example 286, (5R, 7S)-5-[4-(Trifluoromethoxy)benzyl]-3-(2,6-dichloro-4-pyridyl)-7-valerylamino-1,3-diazabicyclo[3.3.0]octane-2,4-dione]",66.8 °C
10,"O=C(O)CCC(=O)N[C@@H]1CN2C(=O)N(c3cc(Cl)nc(Cl)c3)C(=O)[C@@]2(Cc2ccc(OC(F)(F)F)cc2)C1 [Example 66, (5R,7S)-5-[4-(Trifluoromethoxy)benzyl]-3-(2,6-dichloro-4-pyridyl)-7-(3-carboxypropanoylamino)-1,3-diazabicyclo[3.3.0]octane-2,4-dione]",101.9 °C
11,"O=C(O)CC1=CC2(Cc3ccc(Br)cc3)C(=O)N(c3cc(Cl)cc(Cl)c3)C(=O)N2C1 (stereo not drawn) [Example 37, 5-(4-Bromobenzyl)-3-(3,5-dichlorophenyl)-7-carboxymethyl-1,3-diazabicyclo[3.3.0]oct-6-ene-2,4-dione]",101.5 °C
12,"O=C1N(c2cc(Cl)cc(Cl)c2)C(=O)C2(Cc3ccc(Br)cc3)CCCCN12 (stereo not drawn) [Example 6, 6-(4-Bromobenzyl)-8-(3,5-dichlorophenyl)-1,8-diazabicyclo[4.3.0]nonane-7,9-dione]",128.8 °C
13,"NC(=O)C[C@H](NC(=O)c1c(Cl)cc(N2C(=O)N3CCCC3(Cc3ccc(Br)cc3)C2=O)cc1Cl)C(=O)O (stereo partly drawn) [Example 229, 5-(4-Bromobenzyl)-3-(3,5-dichloro-4-L-asparaginocarbonylphenyl)-1,3-diazabicyclo[3.3.0]octane-2,4-dione]",172 °C
14,"N#Cc1ccc(CC23CCCN2C(=O)N(c2cc(Cl)cc(Cl)c2N)C3=O)cc1 (stereo not drawn) [Example 240, 5-(4-Cyanobenzyl)-3-(2-amino-3,5-dichlorophenyl)-1,3-diazabicyclo[3.3.0]octane-2,4-dione]",122.2 °C
15,"O=C(N[C@@H]1CN2C(=O)N(c3cc(Cl)nc(Cl)c3)C(=O)[C@@]2(Cc2ccc(OC(F)(F)F)cc2)C1)c1ccncc1 [Example 67, (5R,7S)-5-[4-(Trifluoromethoxy)benzyl]-3-(2,6-dichloro-4-pyridyl)-7-(isonicotinoylamino)-1,3-diazabicyclo[3.3.0]octane-2,4-dione]",148 °C
16,"N[C@@H]1CN2C(=O)N(c3cc(Cl)cc(Cl)c3)C(=O)[C@@]2(Cc2ccc(OC(F)(F)F)cc2)C1 [Example 300, (5R, 7S)-5-[4-(Trifluoromethoxy)benzyl]-3-(3,5-dichlorophenyl)-7-amino-1,3-diazabicyclo[3.3.0]octane-2,4-dione]",43.3 °C
17,O=C(O)c1cc(C(=O)O)cc(N2C(=O)N3CCCC3(Cc3ccc(Br)cc3)C2=O)c1 (stereo not drawn) [Example 236],259 °C (dec.)
18,"COC(=O)c1ccc(CC23CCCN2C(=O)N(c2cc(Cl)c(O)c(Cl)c2)C3=O)cc1 (stereo not drawn) [Example 142, 5-(4-Methoxycarbonylbenzyl)-3-(3,5-dichloro-4-hydroxyphenyl)-1,3-diazabicyclo[3.3.0]octane-2,4-dione]",105.3 °C
19,"N#Cc1ccc(CC23CN(C(=O)CCC(=O)O)CCN2C(=O)N(c2cc(Cl)nc(Cl)c2)C3=O)cc1 (stereo not drawn) [Example 163, 6-(4-Cyanobenzyl)-4-(3-carboxypropionyl)-8-(2,6-dichloro-4-pyridyl)-1,4,8-triazabicyclo[4.3.0]nonane-7,9-dione]",100.9 °C (dec.)
